Assay results as given in PubChem BioAssay (NCI).
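All cell lines were grown in 96-well plates and treated with compound for 48 hours. TGI is the concentration that stops growth completely.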

How the values were obtained:
Test in all cases: DTP human tumour cell line panel, 48 h
[1] = tested on: 786-0 renal
[2] = tested on: A498 renal
[3] = tested on: A549 NSCLC
[4] = tested on: ACHN renal
[5] = tested on: CAKI-1 renal
[6] = tested on: CCRF-CEM leukemia
[7] = tested on: COLO 205 colon
[8] = tested on: DLD-1 colon
[9] = tested on: DMS 114 small cell lung
[10] = tested on: DMS 273 small cell lung
[11] = tested on: EKVX NSCLC
[12] = tested on: HCC-2998 colon
[13] = tested on: HCT-116 colon
[14] = tested on: HCT-15 colon
[15] = tested on: HL-60(TB) leukemia
[16] = tested on: HOP-18 NSCLC
[17] = tested on: HOP-62 NSCLC
[18] = tested on: HOP-92 NSCLC
[19] = tested on: HT29 colon
[20] = tested on: IGROV1 ovarian
[21] = tested on: KM12 colon
[22] = tested on: KM20L2 colon
[23] = tested on: LOX IMVI melanoma
[24] = tested on: LXFL 529 NSCLC
[25] = tested on: M14 melanoma
[26] = tested on: M19-MEL melanoma
[27] = tested on: MALME-3M melanoma
[28] = tested on: MOLT-4 leukemia
[29] = tested on: NCI-H226 lung
[30] = tested on: NCI-H460 lung
[31] = tested on: NCI-H522 lung
[32] = tested on: OVCAR-3 ovarian
[33] = tested on: OVCAR-4 ovarian
[34] = tested on: OVCAR-5 ovarian
[35] = tested on: OVCAR-8 ovarian
[36] = tested on: RPMI-8226 leukemia
[37] = tested on: RXF 393 renal
[38] = tested on: SF-268 CNS
[39] = tested on: SF-295 CNS
[40] = tested on: SF-539 CNS
[41] = tested on: SK-MEL-28 melanoma
[42] = tested on: SK-MEL-5 melanoma
[43] = tested on: SK-OV-3 ovarian
[44] = tested on: SN12C renal
[45] = tested on: SNB-19 CNS
[46] = tested on: SNB-75 CNS
[47] = tested on: SNB-78 CNS
[48] = tested on: SR leukemia
[49] = tested on: SW-620 colon
[50] = tested on: TK-10 renal
[51] = tested on: U251 CNS
[52] = tested on: UACC-257 melanoma
[53] = tested on: UACC-62 melanoma
[54] = tested on: UO-31 renal
[55] = tested on: NCI-H23 lung
[56] = tested on: SK-MEL-2 melanoma

## O=C1CC2C=CC1C2CO (configuration not stated)
[1]
  TGI: > 100 µM
[2]
  TGI: > 100 µM
[3]
  TGI: > 100 µM
[4]
  TGI: > 100 µM
[5]
  TGI: > 100 µM
[6]
  TGI: > 100 µM
[7]
  TGI: > 100 µM
[8]
  TGI: > 100 µM
[9]
  TGI: > 100 µM
[10]
  TGI: > 100 µM
[11]
  TGI: > 100 µM
[12]
  TGI: > 100 µM
[13]
  TGI: > 100 µM
[14]
  TGI: > 100 µM
[15]
  TGI: > 100 µM
[16]
  TGI: > 100 µM
[17]
  TGI: > 100 µM
[18]
  TGI: > 100 µM
[19]
  TGI: > 100 µM
[20]
  TGI: > 100 µM
[21]
  TGI: > 100 µM
[22]
  TGI: > 100 µM
[23]
  TGI: > 100 µM
[24]
  TGI: > 100 µM
[25]
  TGI: > 100 µM
[26]
  TGI: > 100 µM
[27]
  TGI: > 100 µM
[28]
  TGI: > 100 µM
[29]
  TGI: > 100 µM
[30]
  TGI: > 100 µM
[31]
  TGI: > 100 µM
[32]
  TGI: > 100 µM
[33]
  TGI: > 100 µM
[34]
  TGI: > 100 µM
[35]
  TGI: > 100 µM
[36]
  TGI: > 100 µM
[37]
  TGI: > 100 µM
[38]
  TGI: > 100 µM
[39]
  TGI: > 100 µM
[40]
  TGI: > 100 µM
[41]
  TGI: > 100 µM
[42]
  TGI: > 100 µM
[43]
  TGI: > 100 µM
[44]
  TGI: > 100 µM
[45]
  TGI: > 100 µM
[46]
  TGI: > 100 µM
[47]
  TGI: > 100 µM
[48]
  TGI: > 100 µM
[49]
  TGI: > 100 µM
[50]
  TGI: > 100 µM
[51]
  TGI: > 100 µM
[52]
  TGI: > 100 µM
[53]
  TGI: > 100 µM
[54]
  TGI: > 100 µM

## CC/C=C/c1cc2c(c3[nH]ccc13)[C@@H](C)CC2C (some centres not stated) (tested in a mixture with another compound)
[1]
  TGI: 33.1 µM
[3]
  TGI: 39.1 µM
[4]
  TGI: 31.7 µM
[5]
  TGI: 31.7 µM
[7]
  TGI: 39.7 µM
[8]
  TGI: 26.3 µM
[9]
  TGI: 35.6 µM
[10]
  TGI: 29.4 µM
[11]
  TGI: 36 µM
[12]
  TGI: 10 µM
[13]
  TGI: 33.8 µM
[15]
  TGI: 44.5 µM
[16]
  TGI: 26.5 µM
[17]
  TGI: 32.8 µM
[19]
  TGI: 28.4 µM
[21]
  TGI: 32.2 µM
[22]
  TGI: 29.3 µM
[23]
  TGI: 29.4 µM
[24]
  TGI: 30 µM
[25]
  TGI: 29.3 µM
[26]
  TGI: 35.3 µM
[27]
  TGI: 36 µM
[29]
  TGI: 28.8 µM
[55]
  TGI: 33.1 µM
[30]
  TGI: 29.5 µM
[31]
  TGI: 30.9 µM
[33]
  TGI: 28.9 µM
[34]
  TGI: 34.1 µM
[35]
  TGI: 31.4 µM
[37]
  TGI: 25.7 µM
[38]
  TGI: 32 µM
[39]
  TGI: 30.2 µM
[40]
  TGI: 33.6 µM
[56]
  TGI: 29.6 µM
[41]
  TGI: 30.2 µM
[44]
  TGI: 28.8 µM
[45]
  TGI: 33.8 µM
[47]
  TGI: 32.3 µM
[49]
  TGI: 32.3 µM
[50]
  TGI: 36.9 µM
[51]
  TGI: 31.9 µM
[52]
  TGI: 29.8 µM
[54]
  TGI: 31 µM
